Experimental data published in patent publication US20190364899A1, “MICROBIOCIDAL OXADIAZOLE DERIVATIVES” (SYNGENTA PARTICIPATIONS AG, priority 2015, published 2019).
One block for each molecule: values may come before it.

Key:
Phakopsora pachyrhizi = test: Fungicidal activity against Phakopsora pachyrhizi / soybean / leaf disc preventative (Asian soybean rust); format: in vivo; conditions: foliar, 200 ppm in the applied formulation, soybean leaf disks, inoculated one day after application, compared to untreated, read-out: disease control
Experimental: (§1) General examples of leaf disk tests in well plates: Leaf disks or leaf segments of various plant species are cut from plants grown in a greenhouse. The cut leaf disks or segments are placed in multiwell plates (24-well format) onto water agar. The leaf disks are sprayed with a test solution before (preventative) or after (curative) inoculation. Compounds to be tested are prepared as DMSO solutions (max. 10 mg/ml) which are diluted to the appropriate concentration with 0.025% Tween20 just before spraying. The inoculated leaf disks or segments are incubated under defined conditions (temperature, relative humidity, light, etc.) according to the respective test system. A single evaluation of disease level is carried out 3 to 14 days after inoculation, depending on the pathosystem. Percent disease control relative to the untreated check leaf disks or segments is then calculated. General examples of liquid culture tests in well plates: Mycelia fragments or conidia suspensions of a fungus prepared either freshly from liquid cultures of the fungus or from cryogenic storage, are directly mixed into nutrient broth. DMSO solutions of the test compound (max. 10 mg/ml) are diluted with 0.025% Tween20 by a factor of 50 and 10 μl of this solution is pipetted into a microtiter plate (96-well format). The nutrient broth containing the fungal spores/mycelia fragments is then added to give an end concentration of the tested compound. The test plates are incubated in the dark at 24° C. and 96% relative humidity. The inhibition of fungal growth is determined photometrically after 2 to 7 days, depending on the pathosystem, and percent antifungal activity relative to the untreated check is calculated.
Example 3: Fungicidal Activity Against Phakopsora pachyrhizi/Soybean/Leaf Disc Preventative (Asian Soybean Rust)
Soybean leaf disks are placed on water agar in multiwell plates (24-well format) and sprayed with the formulated test compound diluted in water. One day after application leaf discs are inoculated by spraying a spore suspension on the lower leaf surface. After an incubation period in a climate cabinet of 24-36 hours in darkness at 20° C. and 75% rh leaf disc are kept at 20° C. with 12 h light/day and 75% rh. The activity of a compound is assessed as percent disease control compared to untreated when an appropriate level of disease damage appears in untreated check leaf disks (12 to 14 days after application).
(§2) The following compounds at 200 ppm in the applied formulation give at least 80% disease control in this test when compared to untreated control leaf disks under the same conditions, which show extensive disease development.

[1] = test system: Glomerella Lagenarium (Colletotrichum Lagenarium); test: Fungicidal activity against Glomerella lagenarium (Colletotrichum lagenarium) liquid culture / cucumber / preventative (anthracnose); format: cell-based; conditions: Colletotrichum orbiculare; 20 ppm in the applied formulation; liquid culture in PDB, growth inhibition measured photometrically 3 to 4 days after application; compared to untreated; read-out: disease control
Experimental: as §1
Example 4: Fungicidal Activity Against Glomerella Lagenarium (Colletotrichum Lagenarium) Liquid Culture/Cucumber/Preventative (Anthracnose)
Conidia of the fungus from cryogenic storage are directly mixed into nutrient broth (PDB—potato dextrose broth). After placing a (DMSO) solution of test compound into a microtiter plate (96-well format), the nutrient broth containing the fungal spores is added. The test plates are incubated at 24° C. and the inhibition of growth is measured photometrically 3 to 4 days after application.
The following compounds at 20 ppm in the applied formulation give at least 80% disease control in this test when compared to untreated control under the same conditions, which show extensive disease development.

[2] = test system: Puccinia Recondite f. Sp. Tritici; test: Fungicidal activity against Puccinia recondita f. sp. tritici / wheat / leaf disc curative (brown rust); format: in vivo; conditions: foliar, 24 h, 200 ppm in the applied formulation, wheat leaf segments cv. Kanzler, applied 1 day after inoculation, compared to untreated, read-out: disease control
Experimental: as §1
Example 2: Fungicidal Activity Against Puccinia Recondite f. Sp. Tritici Wheat/Leaf Disc Curative (Brown Rust)
Wheat leaf segments cv. Kanzler are placed on agar in multiwell plates (24-well format). The leaf segments are then inoculated with a spore suspension of the fungus. Plates were stored in darkness at 19° C. and 75% relative humidity. The formulated test compound diluted in water was applied 1 day after inoculation. The leaf segments were incubated at 19° C. and 75% relative humidity under a light regime of 12 hours light/12 hours darkness in a climate cabinet and the activity of a compound was assessed as percent disease control compared to untreated when an appropriate level of disease damage appears in untreated check leaf segments (6 to 8 days after application).
as §2

[3] = test system: Puccinia recondita f, Sp. Tritici; test: Fungicidal activity against Puccinia recondita f. sp. tritici / wheat / leaf disc preventative (brown rust); format: in vivo; conditions: foliar, 200 ppm in the applied formulation, wheat leaf segments cv. Kanzler, inoculated 1 day after application, compared to untreated, read-out: disease control
Experimental: as §1
Example 1: Fungicidal Activity Against Puccinia recondita f, Sp. Tritici/Wheat/Leaf Disc Preventative (Brown Rust)
Wheat leaf segments cv. Kanzler were placed on agar in multiwell plates (24-well format) and sprayed with the formulated test compound diluted in water. The leaf disks were inoculated with a spore suspension of the fungus 1 day after application. The inoculated leaf segments were incubated at 19° C. and 75% relative humidity (rh) under a light regime of 12 hours light/12 hours darkness in a climate cabinet and the activity of a compound was assessed as percent disease control compared to untreated when an appropriate level of disease damage appears in untreated check leaf segments (7 to 9 days after application).
as §2

melting point: 108.2 to 109.8 °C
SMILES: O=C(NCc1ccc(-c2noc(C(F)(F)F)n2)cc1)OCC1CC1 [Compound 1.3, cyclopropylmethyl N-[[4-[5-(trifluoromethyl)-1,2,4-oxadiazol-3-yl]phenyl]methyl] carbamate]
pest or weed control at 200 ppm (Phakopsora pachyrhizi): ≥ 80% | inhibition of growth at 20 ppm [1]: ≥ 80% | pest or weed control at 200 ppm [2]: ≥ 80% | pest or weed control at 200 ppm [3]: ≥ 80%

melting point: 158.8 to 165 °C
SMILES: O=C(NCc1ccc(-c2noc(C(F)(F)F)n2)cc1)NCC1CC1 [Compound 2.1, 1-(cyclopropylmethyl)-3-[[4-[5-(trifluoromethyl)-1,2,4-oxadiazol-3-yl]phenyl]methyl]urea]
pest or weed control at 200 ppm (Phakopsora pachyrhizi): ≥ 80% | inhibition of growth at 20 ppm [1]: ≥ 80% | pest or weed control at 200 ppm [3]: ≥ 80%

melting point: 157 to 160 °C
SMILES: O=C(NCc1ccc(-c2noc(C(F)(F)F)n2)cc1F)NCC1CC1 [Compound 2.2, 1-(cyclopropylmethyl)-3-[[2-fluoro-4-[5-(trifluoromethyl)-1,2,4-oxadiazol-3-yl]phenyl]methyl]urea]
pest or weed control at 200 ppm (Phakopsora pachyrhizi): ≥ 80% | inhibition of growth at 20 ppm [1]: ≥ 80%

melting point: 150.1 to 152.4 °C
SMILES: O=C(NCc1ccc(-c2noc(C(F)(F)F)n2)cc1F)NC1CC1 [Compound 2.4, 1-cyclopropyl-3-[[2-fluoro-4-[5-(trifluoromethyl)-1,2,4-oxadiazol-3-yl]phenyl]methyl]urea]
pest or weed control at 200 ppm (Phakopsora pachyrhizi): ≥ 80% | inhibition of growth at 20 ppm [1]: ≥ 80% | pest or weed control at 200 ppm [2]: ≥ 80% | pest or weed control at 200 ppm [3]: ≥ 80%

melting point: 169 to 173 °C
SMILES: O=C(NCc1ccc(-c2noc(C(F)(F)F)n2)c(F)c1)NC1CC1 [Compound 2.20, 1-cyclopropyl-3-[[3-fluoro-4-[5-(trifluoromethyl)-1,2,4-oxadiazol-3-yl]phenyl]methyl]urea]
pest or weed control at 200 ppm (Phakopsora pachyrhizi): ≥ 80% | inhibition of growth at 20 ppm [1]: ≥ 80% | pest or weed control at 200 ppm [2]: ≥ 80% | pest or weed control at 200 ppm [3]: ≥ 80%

melting point: 82 to 94 °C
SMILES: O=C(NCc1ccc(-c2noc(C(F)(F)F)n2)c(F)c1)N1CCOCC1 [Compound 3.3, N-[[3-fluoro-4-[5-(trifluoromethyl)-l,2,4-oxadiazol-3-yl]phenyl]methyl] morpholine-4-carboxamide]
inhibition of growth at 20 ppm [1]: ≥ 80% | pest or weed control at 200 ppm [2]: ≥ 80% | pest or weed control at 200 ppm [3]: ≥ 80%

Second part, the molecule before the results:

SMILES: O=C(NCc1ccc(-c2noc(C(F)(F)F)n2)cc1F)OC1CCOCC1 [Compound 1.1, tetrahydropyran-4-yl N-[[2-fluoro-4-[5-(trifluoromethyl)-1,2,4-oxadiazol-3-yl)phenyl]methyl) carbamate]
pest or weed control at 200 ppm (Phakopsora pachyrhizi): ≥ 80% | melting point: 105 to 108 °C | inhibition of growth at 20 ppm [1]: ≥ 80% | pest or weed control at 200 ppm [2]: ≥ 80% | pest or weed control at 200 ppm [3]: ≥ 80%

SMILES: O=C(NCc1ccc(-c2noc(C(F)(F)F)n2)cc1)OC1CCOCC1 [Compound 1.2, tetrahydropyran-4-yl N-[[4-[5-(trifluoromethyl)-1,2,4-oxadiazol-3-yl]phenyl]methyl]carbamate]
pest or weed control at 200 ppm (Phakopsora pachyrhizi): ≥ 80% | melting point: 104 to 106 °C | inhibition of growth at 20 ppm [1]: ≥ 80% | pest or weed control at 200 ppm [2]: ≥ 80% | pest or weed control at 200 ppm [3]: ≥ 80%

SMILES: O=C(NCc1ccc(-c2noc(C(F)(F)F)n2)cc1)NC1CC1 [Compound 2.3, 1-cyclopropyl-3-[[4-[5-(trifluoromethyl)-1,2,4-oxadiazol-3-yl]phenyl]methyl]urea]
pest or weed control at 200 ppm (Phakopsora pachyrhizi): ≥ 80% | melting point: 176 to 180.1 °C | inhibition of growth at 20 ppm [1]: ≥ 80% | pest or weed control at 200 ppm [2]: ≥ 80% | pest or weed control at 200 ppm [3]: ≥ 80%

SMILES: O=C(NCc1ccc(-c2noc(C(F)(F)F)n2)c(F)c1)Nc1ccccc1Cl [Compound 2.21, 1-(2-chlorophenyl)-3-[[3-fluoro-4-[5-(trifluoromethyl)-1,2,4-oxadiazol-3-yl]phenyl]methyl]urea]
melting point: 173 to 178 °C | pest or weed control at 200 ppm [3]: ≥ 80%

SMILES: CCN(C(=O)NCc1ccc(-c2noc(C(F)(F)F)n2)cc1)C1CC1 [Compound 2.27, 1-cyclopropyl-1-ethyl-3-[[4-[5-(trifluoromethyl)-1,2,4-oxadiazol-3-yl]phenyl]methyl]urea]
pest or weed control at 200 ppm (Phakopsora pachyrhizi): ≥ 80% | inhibition of growth at 20 ppm [1]: ≥ 80% | pest or weed control at 200 ppm [2]: ≥ 80% | pest or weed control at 200 ppm [3]: ≥ 80%

SMILES: COCC1(N(C)C(=O)NCc2ccc(-c3noc(C(F)(F)F)n3)cc2)CC1 [Compound 2.28, 1-[1-(methoxymethyl)cyclopropyl]-1-methyl-3-[[4-[5-(trifluoromethyl)-1,2,4-oxadiazol-3-yl]phenyl]methyl]urea]
pest or weed control at 200 ppm (Phakopsora pachyrhizi): ≥ 80% | inhibition of growth at 20 ppm [1]: ≥ 80% | pest or weed control at 200 ppm [2]: ≥ 80% | pest or weed control at 200 ppm [3]: ≥ 80%

SMILES: C#CCN(C(=O)NCc1ccc(-c2noc(C(F)(F)F)n2)cc1)C1CC1 [Compound 2.30, 1-cyclopropyl-1-prop-2-ynyl-3-[[4-[5-(trifluoromethyl)-1,2,4-oxadiazol-3-yl]phenyl]methyl]urea]
pest or weed control at 200 ppm (Phakopsora pachyrhizi): ≥ 80% | inhibition of growth at 20 ppm [1]: ≥ 80% | pest or weed control at 200 ppm [2]: ≥ 80% | pest or weed control at 200 ppm [3]: ≥ 80%

SMILES: CN(CC1CC1)C(=O)NCc1ccc(-c2noc(C(F)(F)F)n2)cc1 [Compound 2.31, 1-(cyclopropylmethyl)-1-methyl-3-[[4-[5-(trifluoromethyl)-1,2,4-oxadiazol-3-yl]phenyl]methyl]urea]
pest or weed control at 200 ppm (Phakopsora pachyrhizi): ≥ 80% | inhibition of growth at 20 ppm [1]: ≥ 80% | pest or weed control at 200 ppm [2]: ≥ 80% | pest or weed control at 200 ppm [3]: ≥ 80%

SMILES: O=C(NCCc1ccc(-c2noc(C(F)(F)F)n2)cc1)NC1CC1 [Compound 2.32, 1-cyclopropyl-3-[2-[4-[5-(trifluoromethyl)-1,2,4-oxadiazol-3-yl]phenyl]ethyl]urea]
melting point: 147 to 159 °C

SMILES: O=C(NCc1ccc(-c2noc(C(F)(F)F)n2)cc1)n1ccnc1 [Compound 3.1, N-[[4-[5-(trifluoromethyl)-1,2,4-oxadiazol-3-yl]phenyl]methyl] imidazole-1-carboxamide]
pest or weed control at 200 ppm (Phakopsora pachyrhizi): ≥ 80% | melting point: 97 to 102 °C | inhibition of growth at 20 ppm [1]: ≥ 80% | pest or weed control at 200 ppm [2]: ≥ 80% | pest or weed control at 200 ppm [3]: ≥ 80%

SMILES: O=C(NCc1ccc(-c2noc(C(F)(F)F)n2)cc1)N1CCCC1 [Compound 3.4, N-[[4-[5-(trifluoromethyl)-l,2,4-oxadiazol-3-yl]phenyl]methyl] pyrrolidine-1-carboxamide]
pest or weed control at 200 ppm (Phakopsora pachyrhizi): ≥ 80% | inhibition of growth at 20 ppm [1]: ≥ 80% | pest or weed control at 200 ppm [2]: ≥ 80% | pest or weed control at 200 ppm [3]: ≥ 80%

SMILES: O=C(NCc1ccc(-c2noc(C(F)(F)F)n2)cc1)N1CCCO1 [Compound 3.5, N-[[4-[5-(trifluoromethyl)-l,2,4-oxadiazol-3-yl]phenyl]methyl] isoxazolidine-2-carboxamide]
pest or weed control at 200 ppm (Phakopsora pachyrhizi): ≥ 80% | inhibition of growth at 20 ppm [1]: ≥ 80% | pest or weed control at 200 ppm [2]: ≥ 80% | pest or weed control at 200 ppm [3]: ≥ 80%
